Experimental data taken from ChEMBL document CHEMBL5465560, “Selectivity Literature for EUbOPEN Chemogenomic Library” (2024).

Legend:
[1] = target: T1, Non-receptor tyrosine-protein kinase TYK2 (Homo sapiens, UniProt P29597); assay: Selectivity interaction (KinomeScan (DiscoverX)) EUB0001049a TYK2; conditions: at 1 µM
[2] = target: Protein-tyrosine kinase 2-beta (Homo sapiens) (UniProt Q14289); assay: Selectivity interaction (ProQinase) EUB0000171b PTK2B
[3] = target: T1, Non-receptor tyrosine-protein kinase TYK2; assay: Selectivity interaction (Kinase panel (Carna Biosciences)) EUB0001542aTs TYK2; conditions: at 1 µM
[4] = target: T2, Tyrosine-protein kinase receptor TYRO3 (Homo sapiens) (UniProt Q06418); assay: Selectivity interaction (KinomeScan (DiscoverX)) EUB0000607a TYRO3; conditions: at 10 µM
T2 sequence (whole entry): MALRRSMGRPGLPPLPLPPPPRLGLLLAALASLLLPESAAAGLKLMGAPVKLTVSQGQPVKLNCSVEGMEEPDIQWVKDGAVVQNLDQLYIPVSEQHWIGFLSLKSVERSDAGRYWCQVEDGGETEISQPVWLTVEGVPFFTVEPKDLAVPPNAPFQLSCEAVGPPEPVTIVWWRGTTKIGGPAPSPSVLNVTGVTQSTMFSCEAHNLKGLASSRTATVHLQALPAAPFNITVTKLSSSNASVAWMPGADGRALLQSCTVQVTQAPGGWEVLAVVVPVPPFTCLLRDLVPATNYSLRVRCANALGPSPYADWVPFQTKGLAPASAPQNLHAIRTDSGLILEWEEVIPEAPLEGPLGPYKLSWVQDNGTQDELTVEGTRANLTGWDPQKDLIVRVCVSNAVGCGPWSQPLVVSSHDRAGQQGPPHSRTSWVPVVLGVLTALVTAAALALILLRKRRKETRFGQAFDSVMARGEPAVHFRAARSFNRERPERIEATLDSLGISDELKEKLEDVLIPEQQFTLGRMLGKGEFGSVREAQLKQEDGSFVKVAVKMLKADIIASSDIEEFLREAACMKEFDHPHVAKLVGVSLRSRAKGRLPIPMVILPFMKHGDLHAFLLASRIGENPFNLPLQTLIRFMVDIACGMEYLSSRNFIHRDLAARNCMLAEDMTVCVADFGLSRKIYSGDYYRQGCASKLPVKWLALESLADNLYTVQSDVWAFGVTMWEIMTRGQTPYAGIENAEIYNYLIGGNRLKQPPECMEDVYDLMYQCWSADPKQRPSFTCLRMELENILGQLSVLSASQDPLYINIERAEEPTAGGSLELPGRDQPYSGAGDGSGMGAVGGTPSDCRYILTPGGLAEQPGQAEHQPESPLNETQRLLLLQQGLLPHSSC

[5] = target: T3, Mitogen-activated protein kinase kinase kinase 6 (Homo sapiens) (UniProt O95382); assay: Selectivity interaction (ActivX KiNativ screen (kinase selectivity in THP-1 cell lysates)) EUB0000639a MAP3K6; format: subcellular; conditions: lysate, at 0.2 µM
T3 sequence (whole entry): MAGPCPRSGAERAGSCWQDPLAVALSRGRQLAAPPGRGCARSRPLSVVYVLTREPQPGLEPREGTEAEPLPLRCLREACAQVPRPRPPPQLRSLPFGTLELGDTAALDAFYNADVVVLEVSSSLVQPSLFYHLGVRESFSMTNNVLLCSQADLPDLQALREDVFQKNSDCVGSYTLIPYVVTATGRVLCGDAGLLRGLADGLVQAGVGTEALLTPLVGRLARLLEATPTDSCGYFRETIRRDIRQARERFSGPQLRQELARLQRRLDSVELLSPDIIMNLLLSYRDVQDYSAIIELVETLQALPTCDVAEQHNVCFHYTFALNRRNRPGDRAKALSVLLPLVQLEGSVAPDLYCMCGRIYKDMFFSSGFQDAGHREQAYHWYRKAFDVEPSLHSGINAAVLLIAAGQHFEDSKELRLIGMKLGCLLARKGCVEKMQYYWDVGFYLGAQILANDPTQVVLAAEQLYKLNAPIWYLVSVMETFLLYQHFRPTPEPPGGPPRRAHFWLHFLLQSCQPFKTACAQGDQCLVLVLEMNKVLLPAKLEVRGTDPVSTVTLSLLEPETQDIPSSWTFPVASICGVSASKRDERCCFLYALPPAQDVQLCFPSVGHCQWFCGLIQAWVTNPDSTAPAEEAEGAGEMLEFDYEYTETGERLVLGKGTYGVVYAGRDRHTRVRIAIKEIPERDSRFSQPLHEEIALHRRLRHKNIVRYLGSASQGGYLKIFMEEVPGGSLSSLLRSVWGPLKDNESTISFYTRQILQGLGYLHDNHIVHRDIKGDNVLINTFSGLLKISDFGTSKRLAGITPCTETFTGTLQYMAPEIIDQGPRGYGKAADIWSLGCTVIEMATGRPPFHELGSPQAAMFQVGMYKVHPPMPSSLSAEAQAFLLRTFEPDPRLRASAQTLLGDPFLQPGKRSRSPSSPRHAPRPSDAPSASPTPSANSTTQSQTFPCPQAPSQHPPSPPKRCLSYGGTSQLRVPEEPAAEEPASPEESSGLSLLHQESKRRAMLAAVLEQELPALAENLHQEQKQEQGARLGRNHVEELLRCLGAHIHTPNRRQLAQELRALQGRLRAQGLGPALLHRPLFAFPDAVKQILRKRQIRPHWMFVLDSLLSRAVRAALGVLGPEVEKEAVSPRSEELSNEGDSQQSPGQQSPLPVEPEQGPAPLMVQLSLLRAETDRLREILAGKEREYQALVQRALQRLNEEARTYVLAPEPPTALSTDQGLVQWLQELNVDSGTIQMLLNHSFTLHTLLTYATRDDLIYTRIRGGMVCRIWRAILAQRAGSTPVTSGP

[6] = target: Serine/threonine-protein kinase N1 (Homo sapiens, UniProt Q16512); assay: Selectivity interaction (Kinase panel (Invitrogen)) EUB0000639a PKN1; conditions: at 200 nM
Serine/threonine-protein kinase N1, sequence (Q16512 2-942 limits assumed): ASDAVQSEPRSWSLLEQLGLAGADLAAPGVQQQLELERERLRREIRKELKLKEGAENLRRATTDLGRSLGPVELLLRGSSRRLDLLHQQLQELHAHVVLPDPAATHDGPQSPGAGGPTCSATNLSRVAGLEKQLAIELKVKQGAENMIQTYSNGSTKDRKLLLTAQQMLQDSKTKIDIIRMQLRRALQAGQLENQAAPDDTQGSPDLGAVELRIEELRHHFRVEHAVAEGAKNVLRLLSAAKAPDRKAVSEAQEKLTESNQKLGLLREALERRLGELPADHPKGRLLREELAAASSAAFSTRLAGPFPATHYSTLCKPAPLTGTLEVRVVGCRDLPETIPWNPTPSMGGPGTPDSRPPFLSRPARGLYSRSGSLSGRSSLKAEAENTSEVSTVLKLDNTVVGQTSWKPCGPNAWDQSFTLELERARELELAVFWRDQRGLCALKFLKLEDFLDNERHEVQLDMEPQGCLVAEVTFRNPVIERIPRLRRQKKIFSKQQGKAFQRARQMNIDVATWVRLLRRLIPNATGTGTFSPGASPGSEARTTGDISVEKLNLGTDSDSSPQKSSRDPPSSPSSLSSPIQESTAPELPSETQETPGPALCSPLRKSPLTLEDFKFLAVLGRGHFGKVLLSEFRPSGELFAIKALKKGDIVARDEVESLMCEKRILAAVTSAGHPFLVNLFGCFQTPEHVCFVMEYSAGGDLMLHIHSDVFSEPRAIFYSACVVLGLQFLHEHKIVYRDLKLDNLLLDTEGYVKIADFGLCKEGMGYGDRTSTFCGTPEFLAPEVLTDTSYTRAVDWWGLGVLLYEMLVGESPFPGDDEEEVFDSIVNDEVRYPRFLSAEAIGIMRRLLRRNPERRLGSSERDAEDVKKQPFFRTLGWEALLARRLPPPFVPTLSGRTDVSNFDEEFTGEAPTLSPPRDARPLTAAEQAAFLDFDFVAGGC

Protein-tyrosine kinase 2-beta (Homo sapiens), sequence (Q14289 whole entry, looked up): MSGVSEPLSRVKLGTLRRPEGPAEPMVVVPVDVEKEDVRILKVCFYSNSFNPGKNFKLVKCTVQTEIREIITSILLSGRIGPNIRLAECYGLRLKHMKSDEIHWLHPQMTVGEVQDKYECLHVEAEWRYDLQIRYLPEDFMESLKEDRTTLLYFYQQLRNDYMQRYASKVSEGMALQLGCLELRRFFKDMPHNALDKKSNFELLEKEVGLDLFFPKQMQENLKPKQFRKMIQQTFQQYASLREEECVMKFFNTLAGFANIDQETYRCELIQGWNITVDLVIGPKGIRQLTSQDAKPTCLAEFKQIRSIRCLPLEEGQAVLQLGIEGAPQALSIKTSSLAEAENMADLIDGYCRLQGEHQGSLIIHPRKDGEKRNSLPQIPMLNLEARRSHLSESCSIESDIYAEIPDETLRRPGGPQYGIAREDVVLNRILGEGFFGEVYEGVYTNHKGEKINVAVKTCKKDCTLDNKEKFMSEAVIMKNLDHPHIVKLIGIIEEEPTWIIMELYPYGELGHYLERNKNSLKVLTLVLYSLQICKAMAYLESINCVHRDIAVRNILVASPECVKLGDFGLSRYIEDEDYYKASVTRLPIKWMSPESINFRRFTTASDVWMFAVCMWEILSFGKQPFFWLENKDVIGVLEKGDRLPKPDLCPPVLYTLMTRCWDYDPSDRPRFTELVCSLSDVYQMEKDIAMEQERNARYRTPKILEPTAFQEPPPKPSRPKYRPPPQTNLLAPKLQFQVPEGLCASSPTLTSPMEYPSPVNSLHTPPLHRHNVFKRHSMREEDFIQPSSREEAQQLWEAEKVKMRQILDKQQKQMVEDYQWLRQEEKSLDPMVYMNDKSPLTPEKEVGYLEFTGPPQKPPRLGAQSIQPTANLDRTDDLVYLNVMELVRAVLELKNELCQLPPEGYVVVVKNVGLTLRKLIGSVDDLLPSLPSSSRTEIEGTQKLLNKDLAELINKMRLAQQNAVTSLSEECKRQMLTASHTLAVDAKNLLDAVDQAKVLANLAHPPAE
T1 sequence (P29597 whole entry): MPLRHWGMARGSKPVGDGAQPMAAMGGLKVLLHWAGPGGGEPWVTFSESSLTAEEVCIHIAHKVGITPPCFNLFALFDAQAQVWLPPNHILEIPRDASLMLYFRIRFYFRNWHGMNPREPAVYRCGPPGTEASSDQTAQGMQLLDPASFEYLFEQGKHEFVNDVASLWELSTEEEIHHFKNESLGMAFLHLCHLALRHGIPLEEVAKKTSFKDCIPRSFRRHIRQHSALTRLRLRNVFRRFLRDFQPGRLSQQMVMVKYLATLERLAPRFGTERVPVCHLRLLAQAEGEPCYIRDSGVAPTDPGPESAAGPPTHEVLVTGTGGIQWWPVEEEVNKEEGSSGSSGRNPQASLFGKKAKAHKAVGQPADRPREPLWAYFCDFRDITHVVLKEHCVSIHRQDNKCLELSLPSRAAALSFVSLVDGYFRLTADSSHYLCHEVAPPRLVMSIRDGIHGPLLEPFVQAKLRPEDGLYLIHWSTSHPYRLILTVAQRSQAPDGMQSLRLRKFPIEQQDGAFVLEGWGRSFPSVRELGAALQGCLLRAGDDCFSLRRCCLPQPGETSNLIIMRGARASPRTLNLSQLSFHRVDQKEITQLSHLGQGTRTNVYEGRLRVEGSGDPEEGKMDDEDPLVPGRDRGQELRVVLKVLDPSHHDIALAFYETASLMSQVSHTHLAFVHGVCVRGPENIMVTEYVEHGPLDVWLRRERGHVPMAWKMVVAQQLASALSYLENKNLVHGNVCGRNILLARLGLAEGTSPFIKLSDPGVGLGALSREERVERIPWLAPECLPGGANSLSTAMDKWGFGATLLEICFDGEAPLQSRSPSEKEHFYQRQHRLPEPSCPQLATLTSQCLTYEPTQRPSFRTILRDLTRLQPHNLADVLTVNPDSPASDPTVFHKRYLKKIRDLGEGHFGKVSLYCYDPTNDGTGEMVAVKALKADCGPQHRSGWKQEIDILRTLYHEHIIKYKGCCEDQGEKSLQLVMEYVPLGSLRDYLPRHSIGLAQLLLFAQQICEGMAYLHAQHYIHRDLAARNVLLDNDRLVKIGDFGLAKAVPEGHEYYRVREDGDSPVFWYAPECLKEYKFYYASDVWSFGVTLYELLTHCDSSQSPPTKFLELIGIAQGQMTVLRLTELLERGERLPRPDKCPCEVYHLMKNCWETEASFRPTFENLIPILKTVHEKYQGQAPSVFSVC

`COc1cc(Nc2nc(C)cc(-c3cnn4nc(OC)ccc34)n2)cc(C(F)(F)F)c1` was tested, and the % of control [1] was 90%.

`C=CC(=O)Nc1cccc(C(=O)Nc2ccc(Nc3cc(-c4[nH]c(SC)nc4C)ccn3)cc2)c1` was tested, and the % of control ([2]; at 1 µM) was 91% and the % of control ([2]; at 5 µM) was 96%.

`Cn1cc(Nc2nccc(N3CC4CCC(C3)N4C(=O)[C@@H]3CC3(F)F)n2)cn1` was tested, and the % of inhibition [3] was 98%.

Compound `CNC(=O)Nc1ccc(-c2nc(N3CC4CCC(C3)O4)c3cnn(C4CCC5(CC4)OCCO5)c3n2)cc1` has a % of control [4] of 100%.

Work on `CC[C@@H]1[C@H](F)C(=O)N[C@@H]1COc1nccc2cc(C(N)=O)c(OC)cc12` [ZIMLOVISERTIB] yielded a % of inhibition [5] of -13.5% and a % of inhibition [6] of 8.54%.
